In experiment [1] the test system is EA.hy926 cells. Description: GSH-Px activity in H2O2-damaged cells. The class given is cell-based. Conditions: 500 μmol/L H2O2 alone; control 165.92 ± 5.21. The protocol:
(§1) The activities of SOD and GSH-Px were assessed as follows. EA.hy926 cells were seeded in 6-well plates at 4 × 10^5 cells per well and cultured overnight. After attachment, the cells were serum-starved in high-glucose DMEM containing 1% FBS for 12 h, and then treated for 24 h with peptide solutions at the indicated concentrations or with captopril. […] After treatment, the cells were washed with ice-cold PBS, lysed on ice, and centrifuged to collect the supernatants. SOD and GSH-Px activities were measured spectrophotometrically at 550 nm and 412 nm, respectively, using a microplate reader. Enzyme activities were calculated, normalized to total protein content, and expressed as U/mg protein.

Experiment [2] deals with EA.hy926 cells. In words: SOD activity in H2O2-damaged cells. Type of experiment: cell-based. Particulars: 500 μmol/L H2O2 alone; control 126.15 ± 9.22. How it is done:
as §1

Experiment [3] concerns EA.hy926 cells. Description: Wound healing assay (Ang II-induced migration). Conditions: Ang II 1 μmol/L alone. Type of experiment: cell-based. The protocol:
The effect of peptides on endothelial cell migration was evaluated using a wound healing assay. Briefly, EA.hy926 cells were seeded into 6-well plates and cultured at 37 °C in a humidified atmosphere containing 5% CO2. When the cells reached full confluence, they were treated with 1 μmol/L Ang II for 12 h to induce endothelial dysfunction. Subsequently, a straight scratch was created across the cell monolayer using a sterile 200 μL pipette tip. Detached cells were gently removed by rinsing with PBS, leaving a clear cell-free wound area. To minimize proliferation interference, cells were then incubated in high-glucose DMEM containing 1% FBS, supplemented with different concentrations of the peptides or captopril. Images of the same wound area were captured at 0 h, 6 h, and 24 h using a fluorescence microscope (Axio Observer, Zeiss, Jena, Germany), and the wound area was quantified using ImageJ software (version 1.54g).

The test system of experiment [4] is EA.hy926 cells. Description: NO level in Ang II-stimulated cells (Griess). Type of experiment: cell-based. Particulars: Ang II 1 μmol/L alone; control 109.8 ± 3.93. The protocol:
(§2) To evaluate the effect of the peptide on endothelial function, NO and ET-1 levels were measured in this study. Briefly, EA.hy926 cells were seeded in 6-well plates at a density of 4 × 10^5 cells/well and allowed to adhere overnight. After removing the medium, cells were incubated with 1 μmol/L Ang II for 12 h to induce endothelial dysfunction. Subsequently, the peptide solutions at different concentrations (0.1, 0.2, and 0.4 mg/mL) or the captopril solutions were added, and the cells were incubated for an additional 24 h. For the blank control group, the cells received no treatment. After incubation, the culture supernatants were collected and centrifuged to remove debris. Both NO and ET-1 contents in the supernatants were quantified using commercial kits according to the manufacturer’s protocols. NO content was determined using the Griess reaction (OD = 550 nm), and ET-1 levels were measured via enzyme-linked immunosorbent assay (ELISA) (OD = 450 nm). Absorbance values were recorded at the corresponding wavelengths using a microplate reader (Spark 10M, Tecan, Männedorf, Switzerland).

In experiment [5] the test system is EA.hy926 cells. In words: ET-1 level in Ang II-stimulated cells (ELISA). The class given is cell-based. Conditions: Ang II 1 μmol/L alone; control 13.82 ± 0.69. The protocol: as §2
For orientation: ELISA stands for enzyme-linked immunosorbent assay.

The subject of experiment [6] is ACE. Particulars: cited from earlier work. An excerpt: As compared to traditional experiment-based screening approaches for ACE-inhibitory peptides, which are time-consuming and labor-intensive, an in silico strategy that integrates peptidomic analysis with virtual screening has emerged as a more efficient and cost-effective approach for identifying ACE-inhibitory peptides from food resources. For example, in a previous study by our group, a novel ACE-inhibitory peptide, MMDF, was identified from the simulated digest of oyster proteins using a virtual screening pipeline that incorporated bioactivity prediction, physicochemical proper ... || In recent years, the hydrolysates of royal jelly proteins (RJPs) have gained increasing attention due to their broad spectrum of biological activities, including antioxidant, antibacterial, anti-aging, and antihypertensive properties, which are largely attributed to their favorable amino acid composition and sequence characteristics.

The subject of experiment [7] is ACE. Also noted: method as in 4 sources, ref Han et al. [33] ||| ref 45 = [45]; PMID 35323475; doi:10.3390/md20030176; 45. Zheng S.-L. Luo Q.-B. Suo S.-K. Zhao Y.-Q. Chi C.-F. Wang B. Preparation, Identification, Molecular Docking Study and Protective Function on HUVECs of Novel ACE Inhibitory Peptides from Protein Hy ||| ref 36 = [36]; PMID 37888451; doi:10.3390/md21100516; 36. Hu Y.-D. Xi Q.-H. Kong J. Zhao Y.-Q. Chi C.-F. Wang B. Angiotensin-I-Converting Enzyme (ACE)-Inhibitory Peptides from the Collagens of Monkfish ( Lophius litulon ) Swim Bladders: Isolation, Charac ||| ref 46 = [46]; PMID 37944395; doi:10.1016/j.foodchem.2023.137921; 46. Du T. Xu Y. Xu X. Xiong S. Zhang L. Dong B. Huang J. Huang T. Xiao M. Xiong T. ACE Inhibitory Peptides from Enzymatic Hydrolysate of Fermented Black Sesame Seed: Random Forest-Based Optimization. Particulars: cited from earlier work. An excerpt:
These comparisons support the interaction profile observed for PY ...

Experiment [8] has as its target T1, Angiotensin-converting enzyme (ACE) (Oryctolagus cuniculus, UniProt P12822).
T1 sequence (P12822 34-1310): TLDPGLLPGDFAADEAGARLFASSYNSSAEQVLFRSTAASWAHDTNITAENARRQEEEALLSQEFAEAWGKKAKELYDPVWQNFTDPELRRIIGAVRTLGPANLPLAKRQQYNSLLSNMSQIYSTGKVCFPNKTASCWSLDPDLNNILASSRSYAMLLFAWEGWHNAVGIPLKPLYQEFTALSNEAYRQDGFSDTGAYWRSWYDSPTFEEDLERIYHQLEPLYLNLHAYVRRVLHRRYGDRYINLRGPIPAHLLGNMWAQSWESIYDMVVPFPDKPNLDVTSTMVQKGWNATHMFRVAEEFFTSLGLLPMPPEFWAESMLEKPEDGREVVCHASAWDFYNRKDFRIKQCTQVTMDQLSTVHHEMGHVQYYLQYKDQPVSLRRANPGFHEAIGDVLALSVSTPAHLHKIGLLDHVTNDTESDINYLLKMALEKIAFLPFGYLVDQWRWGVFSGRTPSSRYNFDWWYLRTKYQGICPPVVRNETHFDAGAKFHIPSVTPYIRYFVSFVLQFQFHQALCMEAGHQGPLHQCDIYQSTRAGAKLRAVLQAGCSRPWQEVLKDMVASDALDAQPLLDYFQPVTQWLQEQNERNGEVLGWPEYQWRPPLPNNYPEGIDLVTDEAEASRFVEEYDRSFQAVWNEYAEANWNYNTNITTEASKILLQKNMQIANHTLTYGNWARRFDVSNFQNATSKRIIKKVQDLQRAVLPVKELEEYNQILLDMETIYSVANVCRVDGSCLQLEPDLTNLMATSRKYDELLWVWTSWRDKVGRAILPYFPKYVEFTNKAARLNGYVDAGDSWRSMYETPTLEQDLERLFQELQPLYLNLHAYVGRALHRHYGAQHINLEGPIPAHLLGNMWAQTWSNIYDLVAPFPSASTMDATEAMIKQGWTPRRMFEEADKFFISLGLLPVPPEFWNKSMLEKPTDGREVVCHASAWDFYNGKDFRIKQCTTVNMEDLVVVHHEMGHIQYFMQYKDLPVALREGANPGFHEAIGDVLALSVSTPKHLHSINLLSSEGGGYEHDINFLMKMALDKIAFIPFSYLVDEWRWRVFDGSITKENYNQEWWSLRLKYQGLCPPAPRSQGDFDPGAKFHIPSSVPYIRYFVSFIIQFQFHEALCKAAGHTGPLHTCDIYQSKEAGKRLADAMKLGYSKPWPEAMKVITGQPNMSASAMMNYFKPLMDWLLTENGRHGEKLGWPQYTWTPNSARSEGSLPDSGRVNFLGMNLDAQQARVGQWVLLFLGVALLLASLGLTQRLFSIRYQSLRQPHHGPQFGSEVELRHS
In words: In vitro ACE-inhibitory activity (HHL substrate, HPLC of hippuric acid). Type of experiment: biochemical. Particulars: tested at 0.5 mg/mL, p < 0.05. How it is done:
The ACE-inhibitory activity of the peptides was measured according to a previously reported method. Briefly, 50 μL of the peptide solution, prepared in borate buffer (pH 8.3) containing 0.3 mol/L NaCl, was mixed with 100 μL of HHL (5.82 mmol/L) prepared in the same buffer. After incubation at 37 °C for 5 min, the reaction was initiated by adding 15 μL of ACE solution (0.1 U/mL), also prepared in the borate buffer described above. The mixture was then incubated at 37 °C for 30 min and terminated by adding 150 μL of 1 mol/L HCl. For the blank control, the same procedure was performed using 50 μL of the borate buffer instead of the peptide solution.
The released hippuric acid (HA) was quantified using an Elite P3200 high-performance liquid chromatography (HPLC) system (Dalian Elite Analytical Instruments Co., Ltd., Dalian, China) equipped with a C18 reversed-phase column (Waters, Milford, MA, USA; 150 mm × 4.6 mm, 5 μm) at a detection wavelength of 228 nm. The mobile phase consisted of solvent A (water containing 0.05% trifluoroacetic acid) and solvent B (acetonitrile) in a ratio of 75:25 (v/v). […]
The ACE inhibition rate (%) was calculated using the following equation:(1) ACE Inhibitory rate%=Ablank−Asample/Ablank×100 where Ablank is the peak area of HA in the blank control test, and Asample is the peak area of HA in the sample test. […]

Experiment [9] concerns ACE. More on the design: method as in 3 sources, ref 40 = [40]; PMID 38384691; doi:10.1016/j.fochx.2024.101211; 40. Wei G. Wang T. Li Y. He R. Huang A. Wang X. Identification, Structural Characterization, and Molecular Dynamic Simulation of ACE Inhibitory Peptides in Whey Hydrolysates from Chinese Rushan Cheese ||| ref 41 = [41]; PMID 39250996; doi:10.1016/j.ijbiomac.2024.135469; 41. Wang S. Zhang L. Wang H. Liu J. Hu Y. Tu Z. Angiotensin Converting Enzyme (ACE) Inhibitory Peptide from the Tuna ( Thunnus thynnus ) Muscle: Screening, Interaction Mechanism and Stability Int. J. ||| ref 42 = [42]; PMID 37793525; doi:10.1016/j.ijbiomac.2023.127196; 42. Wang S. Zhang L. Wang H. Hu Z. Xie X. Chen H. Tu Z. Identification of Novel Angiotensin Converting Enzyme (ACE) Inhibitory Peptides from Pacific Saury: In Vivo Antihypertensive Effect and Transpor. Particulars: cited from earlier work.

We go through 14 compounds from publication PMC12785803, “Novel ACE-Inhibitory Peptides from Royal Jelly Proteins: Comprehensive Screening, Mechanistic Insights, and Endothelial Protection” (Foods, 2025).

Where two headings read alike, the source gives them in different places.

`OO` [H2O2, hydrogen peroxide] showed a GSH-Px activity in the experiment on EA.hy926 cells [1] of 119.49 ± 3.94 U/mg prot. Further, in the experiment on EA.hy926 cells [2], the SOD activity was determined as 67.47 ± 9.93 U/mg prot.

As to “Angiotensin II (DRVYIHPF; Angiotensin-2; UniProt P01019 25-32, looked up) [Ang II, used to induce endothelial dysfunction]”, the Migration rate was 42.44 ± 2.12% in the experiment on EA.hy926 cells [3] (6 h, control 35.95 ± 1.08%) and 89.68 ± 1.47% in the experiment on EA.hy926 cells [3] (24 h, control 79.33 ± 0.48%). Also, in the experiment with EA.hy926 cells [4], the NO level turned out to be 58.95 ± 4.31 μmol/g prot. The compound further displayed an ET-1 content in the experiment on EA.hy926 cells [5] of 15.65 ± 0.83 pg/mg prot.

As for FDGPY [identified from Lophius litulon], the IC50 in the experiment with ACE [6] (from Lophius litulon) is 1570 µM. For the same compound, in the experiment on ACE [7] (monkfish swim bladder), the “Docking interactions with ACE” value is “interacted with Ala354 and Tyr523 via hydrogen bonding and hydrophobic interactions”.

“FDVDRW [RJP-derived peptide; synthesized]”: the “ACE-inhibitory activity in vitro (comparison in words)” value in [8] is “PYPDWSFAK and RPYPDWSF exhibited significantly higher ACE-inhibitory activity in vitro than FDVDRW and QWHDKIF”.

Regarding FPPDVA, in the experiment on ACE [6] (from tuna dark muscle hydrolysates), the IC50 is 87.1 ± 1.02 µM.

Turning to “ITAPHW [from fermented black sesame seed]”, the “Docking interactions with ACE” value with ACE [7] (fermented black sesame seed) is listed as “strong ACE inhibition due to direct Zn^2+ coordination”.

“KWEKPF [from Chinese Rushan cheese by-products]”: the ACE inhibition mode result with ACE [9] (from Chinese Rushan cheese by-products) is on record as “mixed-type ACE inhibition”.

Regarding LEPWR [from Pacific saury], the ACE inhibition mode result in the experiment on ACE [9] (from Pacific saury) is “mixed-type ACE inhibition”.

“LTGCP [from tuna (Thunnus thynnus) muscle]”: the ACE inhibition mode entry with ACE [9] (from tuna (Thunnus thynnus) muscle) was “mixed-type ACE inhibition”.

Turning to “QWHDKIF [RJP-derived peptide; synthesized]”, the “ACE-inhibitory activity in vitro (comparison in words)” value in [8] was “PYPDWSFAK and RPYPDWSF exhibited significantly higher ACE-inhibitory activity in vitro than FDVDRW and QWHDKIF”.

For SEGPK [identified from Lophius litulon], the IC50 in the experiment with ACE [6] (from Lophius litulon) is 1210 µM. Moreover, the “Docking interactions with ACE” value in the experiment with ACE [7] (monkfish swim bladder) is “interacted with Ala354 and Tyr523 via hydrogen bonding and hydrophobic interactions”.

With “SLPNYHPSPR [from fermented black sesame seed]”, the “Docking interactions with ACE” value in the experiment with ACE [7] (fermented black sesame seed) was “strong ACE inhibition due to direct Zn^2+ coordination”.

Regarding SPGPW [identified from Lophius litulon], in the experiment on ACE [6] (from Lophius litulon), the concentration for half-maximal inhibition (IC50) was 1310 µM. Besides, in the experiment with ACE [7] (monkfish swim bladder), the “Docking interactions with ACE” value was “formed a hydrogen bond with the catalytic residue His387”.

Take VDRYF [from skipjack tuna muscle]: in the experiment with ACE [7] (skipjack tuna muscle), the “Docking interactions with ACE” value is “formed hydrogen bonds with Ala354 and Tyr523 within S1 pocket, respectively”.

The IC50 is the concentration needed to halve the response being measured.
